Experiments:
CYP1A2 [1] = assay: Non-lytic cell-based assay with human hepatocytes, compound 3019; conditions: 100 μM omeprazole 48 hours, 3 μM compound 3019
Method: Human cryopreserved hepatocytes (Celsis lot RTM) were thawed and seeded in hepatocyte culture medium in wells of a collagen-coated, 96-well culture plate at ˜70,000 cells per well and kept at 37° C. in standard cell culture incubator with 5% CO2. The cells were then treated for 48 hours with 100 μM omeprazole or vehicle control (0.1% dimethylsulfoxide) dissolved in hepatocytes culture medium (n═3 for each treatment, mean values and standard deviations are shown). […] 50 μl of the KH incubation buffer was then removed from each well and transferred to a well of a white, 96-well luminometer plate (Costar) where it was also combined with 50 μl of P450-Glo LDR containing 6.6 mM D-cysteine.

CYP1A2 [2] = assay: Multiplex human hepatocyte assay, CYP1A2 detected with compound 3019; type: cell-based; conditions: human hepatocytes, 100 μM omeprazole 48 hours
Method: For detection of CYP3A4, the luciferin acetal derivative, Luciferin-IPA (Luc-IPA), was used with bioluminescence detected using LDR without D-cysteine.
Human cryopreserved hepatocytes (Celsis In Vitro Technologies) were thawed and seeded in hepatocyte culture medium in wells of a collagen-coated, 96-well culture plate at ˜50,000 cells per well and kept at 37° C. in standard cell culture incubator with 5% CO2. […] The plate was then removed from the incubator. Fifty μl from each intact cell supernatant was transferred to two-set wells of a white, 96-well luminometer plate (Costar). To one set of wells, 50 μl of LDR with 4 mM D-cysteine was added, while 50 μl of LDR without D-cysteine was added to the other set.

[3] = test system: UGT activity in human liver microsomes (HLM); assay: Inhibition of UGT activity in human liver microsomes, compound 3138 as substrate; type: biochemical; conditions: 50 μM compound 3138, 0.1 mg/mL HLM, 15 minutes at 37° C.; read-out: IC50 for HLM utilization of compound 3138
Method: To assess the ability of these compounds to inhibit UGT activity in HLM, reactions were set up as follows. […] Sulfinpyrazone, quinidine, and androsterone were used at a final concentration of 0.5 mM. 1-Naphthol, scopoletin, umbelliferne, and 7-hydroxy-4-trifluoromethyl coumarin were used at a final concentration of 1 mM. […] Valproate was used at a final concentration of 10 mM. All reactions were compared to their corresponding vehicle control sample containing either water, DMSO, or ethanol.

[4] = test system: UGT isozymes in human hepatocytes; conditions: diclofenac, 15-20 minutes at 37° C.
UGT 1A1 = target: T1, UGT 1A1 (Homo sapiens, UniProt P22309); assay: Inhibition of recombinant UGT 1A1 Supersomes, compound 3138 as substrate; type: biochemical; conditions: 20 μM compound 3138, 0.1 mg/mL Supersomes, 90 minutes at 37° C.
T1 construct: purchased BD Gentest; host or cells: insect cells (microsomes)
T1 sequence (P22309 26-533): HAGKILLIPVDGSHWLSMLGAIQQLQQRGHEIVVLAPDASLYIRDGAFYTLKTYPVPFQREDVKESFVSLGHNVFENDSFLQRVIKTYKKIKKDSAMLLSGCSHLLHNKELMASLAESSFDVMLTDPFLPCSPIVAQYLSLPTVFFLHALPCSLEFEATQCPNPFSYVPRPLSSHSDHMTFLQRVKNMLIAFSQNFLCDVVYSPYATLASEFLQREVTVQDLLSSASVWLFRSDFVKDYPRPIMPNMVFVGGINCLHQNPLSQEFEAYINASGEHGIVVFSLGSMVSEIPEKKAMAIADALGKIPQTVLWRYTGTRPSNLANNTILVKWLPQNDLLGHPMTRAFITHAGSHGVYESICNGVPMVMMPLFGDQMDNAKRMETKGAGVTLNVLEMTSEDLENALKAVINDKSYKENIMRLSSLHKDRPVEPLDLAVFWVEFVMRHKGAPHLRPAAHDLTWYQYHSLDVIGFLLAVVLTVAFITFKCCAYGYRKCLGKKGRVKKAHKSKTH
Method: Following the UGT enzyme reaction, an equal volume of P450-Glo Luciferin Detection Reagent (LDR) (Promega) containing 15-30 mM D-cysteine-HCl.H2O (Sigma) was added and the plate was mixed and incubated at room temperature, typically for 20-30 minutes. P450-Glo Luciferin Detection Reagent contains a luciferase reaction mixture that includes a recombinant firefly luciferase, ATP and Mg^2+.
After 2 hours at 37° C., 10 μL of 50 mM D-cysteine-HCl.H2O diluted in 200 mM HEPES, pH 8.0 was added to each 40 μL UGT reaction. After 10 minute incubations, 50 μL P450-Glo LDR (Promega) was added to each well, and bioluminescence was measured.
After 90 minutes at 37° C., 40 μL of P450-Glo LDR plus 20 mM D-cysteine was added to each 40 μL reaction and mixed. After 20 minutes at room temperature, bioluminescence was measured on a luminometer.

UGT isozymes = UGT isozymes currently reported in the literature; cited from earlier work

Row | SMILES | change of signal versus vehicle (CYP1A2 induction) (CYP1A2 [1]) | induction of CYP1A2 activity (CYP1A2 [2]; compound 3019 alone (FIG. 34A)) | induction of CYP1A2 activity (CYP1A2 [2]; compound 3019 in the presence of Luciferin-IPA (FIG. 34C)) | IC50 [3] [µM] | inhibition of compound 3138 conversion in hepatocytes [4] | IC50 (UGT 1A1) [µM] | Isozymes Modulated (UGT isozymes)
1 | COc1ccc2[nH]c([S+]([O-])Cc3ncc(C)c(OC)c3C)nc2c1 (stereo not shown) [omeprazole] | significantly increased | induction of CYP1A2 activity | induction of CYP1A2 activity | – | – | – | –
2 | O=C(O)Cc1ccccc1Nc1c(Cl)cccc1Cl [Diclofenac] | – | – | – | 60 | inhibited | 232 | Inhibits most isozymes
